Reference: PubChem BioAssay AID200 (DTP/NCI, 2004)
Several values for one entry are separate records, joined by “and”; a condition that tells them apart may be missing. Equal entries are not always repeated. Toxic doses and inconclusive results are not listed. The calls were made as follows: active = survival T/C of 150% or more; inactive = T/C below 125% in these data.

Test system: B6C3F1 mice, B16 melanoma ip, median survival T/C
Assay: NCI In Vivo Anticancer Drug Screen. Data for tumor model B16 Melanoma (intraperitoneal) in B6C3F1 mice
Conditions: endpoint: median survival time, schedule: Q01DX009 (ip), higher = longer survival
Method in brief: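 Mice bearing transplanted tumor were dosed with compound or vehicle, and survival was recorded. Activity is expressed as the treated-group measurement (T) divided by the vehicle control measurement (C).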

[1] = dose: 3.12 mg/kg/injection, vehicle: saline with Tween-80
[2] = dose: 6.25 mg/kg/injection, vehicle: saline with Tween-80
[3] = dose: 12.5 mg/kg/injection, vehicle: saline with Tween-80
[4] = dose: 25.0 mg/kg/injection, vehicle: saline with Tween-80
[5] = dose: 50.0 mg/kg/injection, vehicle: saline with Tween-80
[6] = dose: 100.0 mg/kg/injection, vehicle: saline with Tween-80
[7] = dose: 200.0 mg/kg/injection, vehicle: saline with Tween-80
[8] = dose: 400.0 mg/kg/injection, vehicle: saline with Tween-80
[9] = dose: 25.0 mg/kg/injection, vehicle: saline
[10] = dose: 50.0 mg/kg/injection, vehicle: saline
[11] = dose: 100.0 mg/kg/injection, vehicle: saline
[12] = dose: 12.5 mg/kg/injection, vehicle: saline
[13] = dose: 200.0 mg/kg/injection, vehicle: saline
[14] = dose: 1.56 mg/kg/injection, vehicle: saline
[15] = dose: 6.25 mg/kg/injection, vehicle: saline

Measured: T/C

COc1ccc([C@@]23Oc4cc(OC)cc(OC)c4[C@]2(O)[C@H](O)[C@H](C(=O)N(C)C)[C@H]3c2ccccc2)cc1
inactive: dose: 0.25 mg/kg/injection, vehicle: Klucel (hydroxypropylcellulose) (HPC) 97 % of control | dose: 0.5 mg/kg/injection, vehicle: Klucel (hydroxypropylcellulose) (HPC) 119 % of control and 91 % of control and 106 % of control | dose: 1.0 mg/kg/injection, vehicle: Klucel (hydroxypropylcellulose) (HPC) 112 % of control and 117 % of control | dose: 2.0 mg/kg/injection, vehicle: Klucel (hydroxypropylcellulose) (HPC) 103 % of control and 104 % of control and 106 % of control

CO[C@H]1C[C@H](O[C@H]2CC[C@@]3(C)[C@H](CC[C@@H]4[C@@H]3CC[C@]3(C)[C@@H](C5=CC(=O)OC5)CC[C@]43O)C2)O[C@H](C)[C@H]1O
inactive: dose: 1.9 mg/kg/injection, vehicle: Klucel (hydroxypropylcellulose) (HPC) 88 % of control | dose: 2.8 mg/kg/injection, vehicle: Klucel (hydroxypropylcellulose) (HPC) 100 % of control | dose: 4.3 mg/kg/injection, vehicle: Klucel (hydroxypropylcellulose) (HPC) 102 % of control | dose: 6.4 mg/kg/injection, vehicle: Klucel (hydroxypropylcellulose) (HPC) 94 % of control

CC(=O)OC1=C(Br)CCc2ccccc21
inactive: dose: 3.12 mg/kg/injection, vehicle: DMSO 88 % of control | dose: 6.25 mg/kg/injection, vehicle: DMSO 87 % of control | dose: 12.5 mg/kg/injection, vehicle: DMSO 88 % of control | dose: 25.0 mg/kg/injection, vehicle: DMSO 91 % of control

COc1cc(OC)c(NC(=O)ON2C(=O)c3ccccc3C2=O)cc1Cl
inactive: [1] 98 % of control | [2] 104 % of control | [3] 104 % of control | [4] 96 % of control | [5] 87 % of control

COC1(OC)C2C=CC1CC2
inactive: [3] 108 % of control and 98 % of control | [4] 101 % of control | [5] 113 % of control and 102 % of control | [6] 114 % of control and 100 % of control | [7] 100 % of control and 102 % of control | [8] 98 % of control

CCC1OCCN1C(C)C (stereo not drawn)
inactive: [9] 107 % of control | [10] 107 % of control | [11] 98 % of control

Nc1nc(/C=C(/O)c2ccccc2)c2ncn(C3OC(CO)C(O)C3O)c2n1 (stereo not drawn)
inactive: dose: 12.5 mg/kg/injection, vehicle: distilled water + Tween-80 103 % of control | [12] 102 % of control | dose: 25.0 mg/kg/injection, vehicle: distilled water + Tween-80 101 % of control | [9] 101 % of control | dose: 50.0 mg/kg/injection, vehicle: distilled water + Tween-80 95 % of control | [10] 111 % of control | dose: 100.0 mg/kg/injection, vehicle: distilled water + Tween-80 101 % of control | [11] 101 % of control | [13] 103 % of control

O=C(O)C1CSCN1 (stereo not drawn)
inactive: dose: 0.39 mg/kg/injection, vehicle: Klucel (hydroxypropylcellulose) (HPC) 95 % of control | dose: 0.78 mg/kg/injection, vehicle: Klucel (hydroxypropylcellulose) (HPC) 99 % of control | dose: 1.56 mg/kg/injection, vehicle: Klucel (hydroxypropylcellulose) (HPC) 97 % of control | [14] 96 % of control | dose: 3.12 mg/kg/injection, vehicle: Klucel (hydroxypropylcellulose) (HPC) 86 % of control | dose: 3.12 mg/kg/injection, vehicle: saline 86 % of control | dose: 6.25 mg/kg/injection, vehicle: Klucel (hydroxypropylcellulose) (HPC) 93 % of control | [15] 90 % of control and 107 % of control | dose: 12.5 mg/kg/injection, vehicle: Klucel (hydroxypropylcellulose) (HPC) 87 % of control | [12] 116 % of control and 98 % of control and 102 % of control | [9] 117 % of control and 104 % of control | [10] 110 % of control and 121 % of control | [11] 112 % of control and 101 % of control

C(=C\c1nc2ccccc2[nH]1)/c1nc2ccccc2[nH]1
inactive: [4] 96 % of control | [5] 98 % of control | [7] 87 % of control

CC(C)(C)OC(=O)NCCCCC(NC(=O)OC(C)(C)C)C(=O)O (stereo not drawn)
inactive: [5] 97 % of control | [6] 104 % of control | [7] 95 % of control

COC(=O)C(F)C(Br)C(=O)OC (stereo not drawn)
inactive: dose: 3.13 mg/kg/injection, vehicle: saline with Tween-80 98 % of control | [2] 91 % of control | [3] 93 % of control | [4] 93 % of control | [5] 90 % of control

ClC1C(Cl)C(Cl)C(Cl)C(Cl)C1Cl (stereo not drawn)
inactive: [1] 88 % of control and 90 % of control | [2] 109 % of control and 91 % of control | [3] 107 % of control | dose: 25.0 mg/kg/injection, vehicle: Klucel (hydroxypropylcellulose) (HPC) 100 % of control | [4] 92 % of control and 97 % of control | dose: 50.0 mg/kg/injection, vehicle: Klucel (hydroxypropylcellulose) (HPC) 100 % of control | [5] 93 % of control | dose: 100.0 mg/kg/injection, vehicle: Klucel (hydroxypropylcellulose) (HPC) 105 % of control | dose: 200.0 mg/kg/injection, vehicle: Klucel (hydroxypropylcellulose) (HPC) 111 % of control | dose: 400.0 mg/kg/injection, vehicle: Klucel (hydroxypropylcellulose) (HPC) 107 % of control

COc1ccc(C(=O)C(=O)c2ccc(OC)c(OC)c2)cc1OC
inactive: [14] 101 % of control | dose: 3.13 mg/kg/injection, vehicle: saline 99 % of control | [15] 97 % of control

O=CC(O)C(O)C(O)C(O)CO (stereo not drawn)
inactive: dose: 75.0 mg/kg/injection, vehicle: saline 95 % of control | dose: 150.0 mg/kg/injection, vehicle: saline 102 % of control | dose: 300.0 mg/kg/injection, vehicle: saline 103 % of control | dose: 600.0 mg/kg/injection, vehicle: saline 87 % of control | dose: 1200.0 mg/kg/injection, vehicle: saline 96 % of control

Cc1ccc2c(c1)n([O-])c1cc(Cl)ccc1[n+]2=O
inactive: [3] 105 % of control | [4] 101 % of control | [5] 122 % of control | [7] 111 % of control

NC(=O)c1ccc[n+](Cc2c(Cl)cccc2Cl)c1
inactive: dose: 1.5 mg/kg/injection, vehicle: saline 98 % of control | dose: 3.0 mg/kg/injection, vehicle: saline 98 % of control | dose: 6.0 mg/kg/injection, vehicle: saline 103 % of control | dose: 12.0 mg/kg/injection, vehicle: saline 98 % of control

O=C(Oc1cc(Cl)ccc1Cl)c1ccccc1
inactive: [5] 96 % of control | [6] 97 % of control | [7] 91 % of control | [8] 87 % of control

c1ccc2c3c(ccc2c1)Sc1ccc2ccccc2c1N3
inactive: [10] 112 % of control | [11] 112 % of control | [13] 112 % of control | dose: 400.0 mg/kg/injection, vehicle: saline 123 % of control
